Measurements: patent publication US20110039779A1, “IGF-1R BINDING PROTEINS AND ANTAGONISTS” (priority 2007, published 2011)
Values joined by “and” are separate entries in the source; they are usually repeats but may differ in a detail not shown here. Equal entries are not always repeated. Where two headings read alike, the source gives them in different places. Where a SMILES comes first, the peptide text is derived from it.

Assays:
[1] = molecular target: T1, His-tagged soluble recombinant human IGF-IR (srhIGF-1R-his) (Homo sapiens, UniProt P08069); test: ALPHAScreen competition binding assay, biotinylated hIGF-1
T1 construct: The extra-cellular domain of IGF-1R was obtained as a recombinant protein from R&D Systems; purchased R&D Systems, Inc., Minneapolis, Minn
T1 sequence (P08069 31-736 limits assumed): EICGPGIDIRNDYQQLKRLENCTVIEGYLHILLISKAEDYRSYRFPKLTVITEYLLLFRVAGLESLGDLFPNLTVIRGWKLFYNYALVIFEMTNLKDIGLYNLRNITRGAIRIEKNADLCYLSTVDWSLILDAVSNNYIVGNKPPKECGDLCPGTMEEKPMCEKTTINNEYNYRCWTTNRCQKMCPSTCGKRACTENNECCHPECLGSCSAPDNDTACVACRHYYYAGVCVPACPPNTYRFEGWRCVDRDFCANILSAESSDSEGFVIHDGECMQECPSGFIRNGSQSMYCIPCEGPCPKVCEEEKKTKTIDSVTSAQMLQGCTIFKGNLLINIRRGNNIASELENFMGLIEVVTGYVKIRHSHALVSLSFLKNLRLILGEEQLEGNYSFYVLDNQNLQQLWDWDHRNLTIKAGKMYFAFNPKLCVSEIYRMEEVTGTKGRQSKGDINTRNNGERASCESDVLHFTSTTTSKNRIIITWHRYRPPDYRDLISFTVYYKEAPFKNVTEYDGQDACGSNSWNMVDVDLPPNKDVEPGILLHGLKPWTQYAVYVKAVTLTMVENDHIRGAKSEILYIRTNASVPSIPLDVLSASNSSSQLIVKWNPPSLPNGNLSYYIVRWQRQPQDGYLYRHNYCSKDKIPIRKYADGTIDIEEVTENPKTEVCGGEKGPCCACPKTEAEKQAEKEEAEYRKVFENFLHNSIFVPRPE
T1 sequence (P08069 741-935 limits assumed): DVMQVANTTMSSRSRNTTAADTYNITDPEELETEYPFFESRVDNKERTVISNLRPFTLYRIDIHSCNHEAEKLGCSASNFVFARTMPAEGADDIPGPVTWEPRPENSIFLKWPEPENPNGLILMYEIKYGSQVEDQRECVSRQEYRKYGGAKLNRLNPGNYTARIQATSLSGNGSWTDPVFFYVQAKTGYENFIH
Procedure: Binding Assays. […] Detection of the receptor ligand interaction was measured in an amplified luminescent proximity homogeneous assay (ALPHAScreen; BioSignal-Packard, Montreal). The assay was performed in 384-well Nunc™ white polystyrene microplates (Nalge Nunc International, Naperville, Ill.) with a final volume of 40 μL. […] Each concentration of competitor was assayed in duplicate. Non-specific binding was determined in the presence of 3×10^−5 M hIGF-1. The second step of the assay was to add acceptor beads and the incubation continued for 0.5 hr. The final step was to add donor beads and the incubation continued for an additional 1 hr. […] Primary data were background corrected, normalized to buffer controls and then expressed as % Specific Binding. The data were fit to a four-parameter non-linear regression analysis (y=min+(max-min)/(1+10̂((log IC50-x)*Hillslope))), which was used to determine IC50 values. The Z′-factor for this assay is greater than 0.7 (Z′=1-(3σ++3σ−)/|μ+−μ−|) and the signal-to-background (SB) ratio was between 40 and 70.

MCF7 cells [2] = molecular target: T2, MCF7 cells (Homo sapiens, UniProt P08069); test: antagonism assay in starved MCF7 cells, luminescence viability, 72 hrs; format: cell-based; settings: read-out: Cell; Table 11
T2 sequence (P08069 31-736): as the sequence (P08069 31-736 limits assumed) above
Procedure: Additional binding and antagonism assays using candidate peptides were performed. […] Cell viability was determined by luminescence assay and IC50 was calculated using standard techniques.

SW480 cells = format: cell-based
Procedure: (§1) For cell growth/density studies, a mitochondrial activity assay was used, as exemplified by the following. Cells (SW480, MCF-7S8) were propagated in complete medium (DME: F12, 10% FCS (SW 480) or 5% FCS (MCF-7S8, P/S)), trypsinized, and seeded in 96 well plates as 10,000 cells/well in medium with 0.5% FCS. All wells in the periphery were omitted and only filled with medium. […] All treatments are made in triplicates. […] Treatment was continued for 48 hours (SW480 cells) or 72 hours (MCF-7S8 cells) before quantification of the cell density. Media was exchanged each day. Media and peptides were diluted in DMSO. When measuring cell density, the volume of each well was adjusted to […] Pre-diluted WST-1 (1 ml+1.5 ml DME:F12) was added as 25 μL to each well including background samples. Three wells with media only served as background controls. The cells were incubated for 90 min protected against light in an incubator.

MCF-7S8 cells = MCF-7S8 cells (Homo sapiens, UniProt P08069); test: cell growth/density, mitochondrial activity assay (WST-1), MCF-7S8; format: cell-based; settings: one experiment only
MCF-7S8 cells, sequence (P08069 31-736): as the sequence (P08069 31-736 limits assumed) above
Procedure: as §1

IRS-1 [3] = test: IRS-1 phosphorylation in MCF7 cells (immunoprecipitation, Western blot); format: cell-based, human; settings: 0.5 nM IGF-1, 10 minutes, peptides 30 μM
Procedure: Preparation of whole-cell lysates, immunoprecipitation, and Western blot analysis. For qualitative IRS-1 phosphorylation analysis, MCF7 cells in monolayer cultures (about 80% of confluency) were used. […] After treatment, cells were rinsed twice with ice-cold PBS containing 0.2 mM PMSF and 1 mM Na3VO4 (all from SIGMA). Cells were scraped into the same buffer and pelleted by centrifugation at 200 g for 3 min. […] Cell lysates were cleared by centrifugation for 5 min at 14 000 g and the resulting supernatant was snap-frozen in EtOH-dry ice and stored at −80° C. The protein concentration was determined using the Dc Protein Assay Kit (Bio-Rad Laboratories).
Immunoprecipitations were performed with pre-cleared lysates for 4 hours at […] using 0.3-0.5 mg of total protein with 1 μg of polyclonal anti-IRS-1 antibody (Upstate Biotechnology), and 25 μL of Protein A/agarose slurry (SIGMA). Agarose beads with immobilized proteins were washed 3 times with IP wash buffer (50 mM Tris pH 7.5 (GibcoBRL), 150 mM NaCl, 1 mM Na3VO4, 0.2 mM PMSF). […]
Immunoprecipitates were subjected to SDS-PAGE on 4-15% Tris-HCl Ready Gels and transferred to Trans-Blot Transfer Medium nitrocellulose membranes (both from Bio-Rad Laboratories). […] Blots were exposed to an enhanced […] substrate (ECL Western Blotting Analysis System, Amersham Pharmacia Biotech). […]

MCF7 cells [4] = molecular target: T2, MCF7 cells; test: cell assay (WST-1), antagonism of IGF-1, MCF7; format: cell-based; settings: 5×10^−8 M IGF-1; 72 h; FIG. 10B
Procedure: (§2) Cell Assays. MCF7 or MiaPaCa cells were plated in 96 well plates at a concentration of 3×10^3 cells/well in 75 μL of serum-free RPMI-1640 and incubated overnight at 37° C. Dilutions of the peptides were prepared in a separate working plate and 75 μL added to the cells. […] Plates were incubated for 48-72 hours at 37° C. Viability was measured by the addition of 10 μL WST-1/well (Roche) as per the manufacturer's instructions.
The cells were treated as described in the materials and methods section. […] The data are presented as percent inhibition and to determine binding kinetic parameters data were fit to a four-parameter logistic equation.

MiaPaCa cells = test: cell assay (WST-1), antagonism of IGF-1, MiaPaCa; format: cell-based, human; settings: 5×10^−8 M IGF-1; 72 h; FIG. 10C
Procedure: as §2

[5] = tested on: SGBS adipocytes transfected with HIR-encoding DNA; test: 3H glucose incorporation (insulin agonist activity) in SGBS adipocytes; format: cell-based
Procedure: Insulin increases uptake of ^3H glucose into adipocytes and its conversion into lipid. Incorporation of ^3H into the lipid phase was determined by partitioning of lipid phase into a scintillant mixture, which excludes water-soluble ^3H products. […] The results are expressed as increase relative to full insulin response.

insulin receptor/IGF-1R = test: tyrosine phosphorylation of insulin receptor/IGF-1R in L6-hIR cells (Western blot); format: cell-based
PKB/Akt = test: downstream signaling in L6 cells: PKB/Akt; format: cell-based; settings: 3 nM IGF-1, read-out: PKB/Akt, IC50 for down regulation of the stimulation to the basal level
Procedure: (§3) The tyrosine phosphorylation of IRS signaling (the 180 kDa band on a tyrosine phosphor Western blot) as well as activation of effectors MAPK 44 and 42 and PKB were analyzed by using antibodies specific for their active forms using methods substantially similar to those described in Example 14 of the '246 PCT application.
(§4) The effect of select peptides on downstream signaling (MAPK44, MAPK42, PKB/Akt, IRS-1, and IGF-1R) was also measured by studying the signaling in L6 cells predominantly expressing IGF-1R and very limited insulin receptors. […] The antagonistic effect of the peptides can be seen to affect all the downstream signaling from the IGF-1R.

MAPK44 = test: downstream signaling in L6 cells: MAPK44; format: cell-based; settings: 3 nM IGF-1, read-out: MAPK44, IC50 for down regulation of the stimulation to the basal level
Procedure: as §3, §4

MAPK42 = test: downstream signaling in L6 cells: MAPK42; format: cell-based; settings: 3 nM IGF-1, read-out: MAPK42, IC50 for down regulation of the stimulation to the basal level
Procedure: as §3, §4

IGF-IR = test: downstream signaling in L6 cells: IGF-IR; format: cell-based; settings: 3 nM IGF-1, read-out: IGF-IR, IC50 for down regulation of the stimulation to the basal level
Procedure: as §3, §4

IRS-1 [6] = test: downstream signaling: IRS-1 tyrosine phosphorylation; format: cell-based
Procedure: as §3, §4

[7] = molecular target: T3, IGF-1R on L6 (with mainly symmetric IGF-1R) (Rattus norvegicus, UniProt P24062); test: displacement of IGF-1 binding on L6 cells
T3 construct: L6 cells predominantly expressing IGF-1R and very limited insulin receptors; endogenous in cells; host or cells: L6 cells
T3 sequence (P24062 31-737 limits assumed): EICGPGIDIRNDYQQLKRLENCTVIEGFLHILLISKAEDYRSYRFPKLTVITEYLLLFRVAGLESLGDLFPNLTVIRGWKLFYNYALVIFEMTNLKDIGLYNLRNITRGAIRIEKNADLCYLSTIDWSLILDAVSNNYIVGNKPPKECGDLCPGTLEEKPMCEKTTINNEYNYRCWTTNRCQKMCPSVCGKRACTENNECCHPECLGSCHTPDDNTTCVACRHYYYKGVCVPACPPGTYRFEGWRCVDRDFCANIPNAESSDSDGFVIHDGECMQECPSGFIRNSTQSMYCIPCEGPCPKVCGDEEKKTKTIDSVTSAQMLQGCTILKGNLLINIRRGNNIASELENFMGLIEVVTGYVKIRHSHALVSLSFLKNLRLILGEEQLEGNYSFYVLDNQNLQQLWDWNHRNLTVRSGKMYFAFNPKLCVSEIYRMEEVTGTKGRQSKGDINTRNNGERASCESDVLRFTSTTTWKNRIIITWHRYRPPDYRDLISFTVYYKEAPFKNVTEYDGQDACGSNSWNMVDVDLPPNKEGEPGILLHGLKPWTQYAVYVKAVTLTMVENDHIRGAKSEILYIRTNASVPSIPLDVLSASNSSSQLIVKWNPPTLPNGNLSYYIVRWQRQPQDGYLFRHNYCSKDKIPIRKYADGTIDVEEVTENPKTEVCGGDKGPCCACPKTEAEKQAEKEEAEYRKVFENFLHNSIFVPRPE
T3 sequence (P24062 742-1370 limits assumed): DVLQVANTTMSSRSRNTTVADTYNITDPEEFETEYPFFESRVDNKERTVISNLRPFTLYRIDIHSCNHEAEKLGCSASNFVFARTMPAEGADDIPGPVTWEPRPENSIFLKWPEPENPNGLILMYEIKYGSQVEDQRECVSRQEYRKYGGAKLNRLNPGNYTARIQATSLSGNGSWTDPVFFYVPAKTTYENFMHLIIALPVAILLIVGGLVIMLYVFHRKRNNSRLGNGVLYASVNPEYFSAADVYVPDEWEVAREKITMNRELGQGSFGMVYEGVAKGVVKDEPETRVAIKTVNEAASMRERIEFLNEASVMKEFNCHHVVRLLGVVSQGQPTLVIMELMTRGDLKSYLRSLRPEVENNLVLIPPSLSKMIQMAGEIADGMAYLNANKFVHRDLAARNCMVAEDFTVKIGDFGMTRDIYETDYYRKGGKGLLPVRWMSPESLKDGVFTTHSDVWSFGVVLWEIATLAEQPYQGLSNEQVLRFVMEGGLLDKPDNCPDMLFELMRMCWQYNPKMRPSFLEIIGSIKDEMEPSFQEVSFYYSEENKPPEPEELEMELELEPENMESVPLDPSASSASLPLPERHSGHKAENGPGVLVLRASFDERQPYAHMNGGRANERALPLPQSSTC

[8] = tested on: L6 hIR (with mainly hybrid IGF-1R/IR); test: displacement of IGF-1 binding on L6 hIR cells
L6 hIR (with mainly hybrid IGF-1R/IR), sequence (P24062 31-737 limits assumed): as the sequence (P24062 31-737 limits assumed) above
L6 hIR (with mainly hybrid IGF-1R/IR), sequence (P24062 742-1370 limits assumed): as the sequence (P24062 742-1370 limits assumed) above

[9] = tested on: IGF-1R, IRS-1, MAPK42/44 and PKB/Akt; test: IGF-1 induced phosphorylation (IGF-1R, IRS-1, MAPK42/44, PKB/Akt) in L6 and L6 hIR cells, summary in description; format: cell-based; settings: read-out: phosphorylation of IGF-1R and MAPK42/44 in response to IGF-1 treatment, IC50
Procedure: The activation of HIR or HIGF-1R in adipocytes was measured by stimulating the cells and studying the level of tyrosine phosphorylation (Western blot) of the insulin receptor/IGF-1R. […] The IGF-1R will be present in symmetric homodimer complex as well as in the heterodimer with half insulin receptor.
as §3, §4

[10] = read-out: IC50 in SW480 (M) in presence of IGF-1/alone: in presence of IGF-1, first value of the cell: concentration needed to blunt the effect of 10 nM IGF-1, cells in words only = effect as reported, 48 hours

For `CC(C)C[C@H](NC(=O)[C@H](CS)NC(=O)[C@H](CO)NC(=O)[C@H](Cc1ccc(O)cc1)NC(=O)[C@H](Cc1ccccc1)NC(=O)[C@@H](N)[C@@H](C)O)C(=O)N[C@@H](C)C(=O)N[C@@H](CO)C(=O)N[C@@H](CC(C)C)C(=O)N[C@@H](CC(C)C)C(=O)N[C@H](C(=O)NCC(=O)N[C@H](C(=O)N1CCC[C@H]1C(=O)N[C@@H](CCC(N)=O)C(=O)N1CCC[C@H]1C(=O)N[C@@H](CC(N)=O)C(=O)N[C@@H](CCCNC(=N)N)C(=O)NCC(=O)N1CCC[C@H]1C(=O)N[C@@H](Cc1c[nH]c2ccccc12)C(=O)N[C@@H](CCC(=O)O)C(=O)N[C@@H](CCCNC(=N)N)C(=O)N[C@@H](CS)C(=O)N[C@@H](CCCNC(=N)N)C(=O)O)[C@@H](C)O)[C@@H](C)O` [RP6] (H-TFYSCLASLLTGTPQPNRGPWERCR-OH), the IC50 [1] was 2.7 µM and the IC50 (MCF7 cells [2]) was 9 µM.

“ESYGDCRDRPCGDAPNFYDWFVQQASE [Peptide F270]” was tested, and the “IC50 in SW480 (M) in presence of IGF-1/alone: in presence of IGF-1” value (SW480 cells; first value of the cell: concentration needed to blunt the effect of 10 nM IGF-1, cells in words only = effect as reported, 48 hours) was “agonistic?”, the IC50 (SW480 cells; [10]) was 2e-06 M and the “effect on MCF-7” value (MCF-7S8 cells) was “agonistic effects”.

With “SFYSCLESLVNGPAEKSRGQWDGCRK [Peptide F250]” the IC50 (SW480 cells; [10]) was 2e-06 M and 1e-06 M, the “IGF-1-induced phosphorylation of IRS-1” value (IRS-1 [3]) was “inhibited” and the “competition of IGF-1 binding” value ([1]; FIG. 10A) was “competes IGF-1 binding”. For the same compound, the “antagonism of IGF-1 activity in MCF-7 cells” value (MCF7 cells [4]) was “antagonism of IGF-1 activity in MCF-7 cells” and the “antagonism of IGF-1 activity in MiaPaCa cells” value (MiaPaCa cells) was “antagonism of IGF-1 activity in MiaPaCa cells”.

In the case of “SFYSCLESLVQGPAEKSRGQWEGCRK [Peptide F293]”, the IC50 (SW480 cells; read-out: IC50 in SW480 (M) in presence of IGF-1/alone: alone, second value of the cell: concentration needed to inhibit basal level in 0.5% FCS) is reported as 1e-07 M, the “inhibition of basal growth of SW480, doses” value (SW480 cells; without IGF-1) is reported as “inhibition of basal growth was observed” and the “effect on glucose uptake induced by insulin or IGF-1” value ([5]; SGBS adipocytes, FIGS. 1A and 1B) is reported as “neither peptide F138 nor peptide F293 has any substantial effect on glucose uptake induced by insulin or IGF-1”. The “doses not affecting glucose uptake in response to insulin/IGF-1” value ([5]; SGBS cells) was less than 5 µM, the “inhibition of IGF-1 induced versus insulin induced phosphorylation” value (insulin receptor/IGF-1R) was “more effective on IGF-1 induced phosphorylation as compared to insulin induced phosphorylation” and the “effect on insulin stimulated tyrosine phosphorylation” value (insulin receptor/IGF-1R; 2 μM peptide, 10 min) was “marginal effect”. For the same compound, the “effect on tyrosine phosphorylation by IGF-1” value (insulin receptor/IGF-1R; 2 μM peptide, 10 min) was “inhibited”, the IC50 (PKB/Akt) was greater than 1 µM and the IC50 (MAPK44) was 0.5 µM. For the same compound, the IC50 (MAPK42) was 1 µM, the IC50 (IGF-IR) was 0.5 µM and the “effect on IGF-1 stimulated IRS-1 phosphorylation” value (IRS-1 [6]; FIG. 4, 10 min) was “clearly inhibits the IGF-1 stimulated IRS-1 phosphorylation”. For the same compound, the IC50 (IRS-1 [6]; L6 cells, 3 nM IGF-1, read-out: IRS-1, IC50 for down regulation of the stimulation to the basal level) was greater than 1 µM, the “concentration displacing IGF-1 binding to IGF-1R on L6” value [7] was 150 nM and the “concentration displacing IGF-1 binding in L6 hIR” value [8] was 150 nM. It also gave an IC50 [9] of 0.5 µM.
